For this test, the system named is smooth muscle cells (SMC). Nature of the test: anti-proliferation assay (perlecan). The test is classed as cell-based. The following applies: for activity in anti-proliferation assay (Perlecan), in words: using the same activity scale used in Table 3. On the procedure:
The activity scale used in Table 3 as follows (numbers are inclusive): “+++” represents IC50 of less than about 3 μM; “++” represents IC50 of between about 3 and about 7 μM; and “+” represents IC50 of greater than about 7 μM. In addition, compounds, to include compositions thereof, encompassed within the scope of structures Ia-XXIVa, respectively, or listed in Tables 1A and 1E may be likewise employed in this embodiment and/or aspect of the present invention. Further, any hydrogen atoms that are required for any atom to attain its usual valence in a structure presented in Table 3, whether a carbon atom or a heteroatom, should be inferred if it is not specifically indicated.
In addition to the above compounds, the following compounds and compositions comprising these compounds are active in an anti-proliferation assay (Perlecan). These compounds and compositions comprising these compounds are, among other things, generally useful for treating cardiovascular disorders associated with proliferative activity. Specifically, these compounds include N^2-cycloheptyl-N^4-(3-fluoro-4-methoxyphenyl)-N^6-methyl-N^6-(1-methyl-piperidin-4-yl)-1,3,5-triazine-2,4,6-triamine, and N^2-cycloheptyl-N^4-methyl-N^4-(1-methyl-piperidin-4-yl)-N^6-naphthalen-2-yl-1,3,5-triazine-2,4,6-triamine.
Methods for identifying the activity and screening for one or more of these compounds or molecules that induce synthesis of proteoglycans such as HSPG (heparan sulfate proteoglycan) are taught in U.S. patent application Ser. No. 10/091,357, which is incorporated herein in its entirety. Assays of effects of compounds in vivo are also taught in the incorporated references and are known to those skilled in the art. In general, methods comprise the addition of such compounds to assays and measurement of HSPG synthesis including, but not limited to, the production of syndecans, glypicans and perlecans, for example, syndecans 1, 2 and 4; and glypican-1. Other assays that can be used to determine the activity of the compounds of the present invention include other methods for measuring the induction of perlecan synthesis. For example, in one assay, perlecan is induced in cells by certain inducers, and the response is measured. Compounds of the present invention are then added to a replicate assay and the effect on perlecan induction is determined. Using such methods, compounds are determined that can either inhibit perlecan, elevate induction of perlecan, or that have no effect at all. Those compounds that are effective as therapeutic agents can then be used in animals, humans or patients with cellular proliferation disease aspects, such as vascular-associated diseases or SMC proliferation pathologies.
Another assay for determining compounds having SMC effects comprises adding a composition suspected of affecting SMC proliferation to smooth muscle cells in growth medium or serum-free medium. The change in cell proliferation can be measured by methods known to those skilled in the art, such as incorporation of labeled nucleotides into dividing cells' DNA, and compared to the proliferation of cells which are not treated with the compound. Other measurements include directly determining levels of HSPG synthesis by measuring the amount or change in amount of HSPG such as with ELISA for HSPGs, and compared to the amount of HSPG synthesis in untreated cells. Other indirect or direct measurement are contemplated by the present invention and are known to those skilled in the art. For example, such methods include, but are not limited to, measurement of RNA levels, RT-PCR, Northern blotting, Western blotting promoter-based assays to identify compounds that affect one or more proteoglycans and assays for proteoglycan biological activity shown by recombinant proteins, partially purified proteins, or lysates from cells expressing proteoglycans in the presence or absence of compounds of interest.

Setting [1] is: anti-proliferation assay (perlecan), class of IC50, read-out: Activity (note 1).
The mark [2] stands for this setting: anti-proliferation assay (perlecan), some cells print no unit, read-out: Avg IC-50.

Like-named read-outs stand apart in the source and are kept apart here.

The text below walks through data of patent US7335770B2, “Triazine compounds and their analogs, compositions, and methods” (Reddy U5 Therapeutics, Inc., priority 2004, dated 2008).

Turning to `COc1ccc(Nc2nc(NCC3CCCO3)nc(NC3CCCCCC3)n2)cc1Cl` (stereo not shown) [N-(3-Chloro-4-methoxy-phenyl)-N′-cycloheptyl-N″-(tetrahydro-furan-2-ylmethyl)-[1,3,5]triazine-2,4,6-triamine], the “activity in anti-proliferation assay (Perlecan), in words” value (“activity in anti-proliferation assay” for short) was “high activity”.
As for `COc1ccc(Nc2nc(NCCN)nc(NC3CCCCCC3)n2)cc1Cl` [N-(2-Amino-ethyl)-N′-(3-chloro-4-methoxy-phenyl)-N″-cycloheptyl-[1,3,5]triazine-2,4,6-triamine], the “activity in anti-proliferation assay” value is on record as “high activity”.
Take `COc1ccc(Nc2nc(NC3CCCCCC3)nc(Oc3ccc(/C=N\O)cc3)n2)cc1Cl` [4-[4-(3-Chloro-4-methoxy-phenylamino)-6-cycloheptylamino-[1,3,5]triazin-2-yloxy]-benzaldehyde oxime]: the “activity in anti-proliferation assay” value was “high activity”.
Still for that read-out and setting: to `COc1ccc(Nc2nc(NCCNC(=O)OC(C)(C)C)nc(NC3CCCCCC3)n2)cc1Cl` [{2-[4-(3-Chloro-4-methoxy-phenylamino)-6-cycloheptylamino-[1,3,5]triazin-2-ylamino]-ethyl}-carbamic acid tert-butyl ester] belongs “high activity”.
On the same count and under the same terms, to `COc1ccc(Nc2nc(NC3CCCCCC3)nc(Oc3ccccc3I)n2)cc1Cl` [N-(3-Chloro-4-methoxy-phenyl)-N′-cycloheptyl-6-(2-iodo-phenoxy)-[1,3,5]triazine-2,4-diamine] belongs “high activity”.
On to `COc1ccc(Nc2nc(NC3CCCCCC3)nc(Oc3ccccc3C#CC(C)(C)O)n2)cc1Cl` [drawing 580, 4-{2-[4-(3-Chloro-4-methoxy-phenyl-amino)-6-cyclo-heptylamino-[1,3,5]triazin-2-yl-oxy]-phenyl}-2-methyl-but-3-yn-2-ol], for which the IC50 runs as follows: under setting [1], under 3000 nM; under setting [2], 2800 nM.
Take `CN1CCC(N(C)c2nc(Nc3cccc([N+](=O)[O-])c3)nc(NC3CCCCCC3)n2)CC1` [N-Cycloheptyl-N′-methyl-N′-(1-methyl-piperidin-4-yl)-N″-(3-nitro-phenyl)-[1,3,5]triazine-2,4,6-triamine]: the “activity in anti-proliferation assay” value is “high activity”.
In the case of `Cc1ccc(Nc2nc(NC3CCCCCC3)nc(N(C)C3CCN(C)CC3)n2)cc1F` [N-Cycloheptyl-N′-(3-fluoro-4-methyl-phenyl)-N″-methyl-N″-(1-methyl-piperidin-4-yl)-[1,3,5]triazine-2,4,6-triamine], the “activity in anti-proliferation assay” value is “high activity”.
Same read-out and setting: the same measure for `COc1ccc(Nc2nc(NC3CCCCCC3)nc(OC3CCN(C)CC3)n2)cc1Cl` [N-(3-Chloro-4-methoxy-phenyl)-N′-cycloheptyl-6-(1-methyl-piperidin-4-yloxy)-[1,3,5]triazine-2,4-diamine]: “high activity”.
On the same count and under the same terms, to `COc1ccc(Nc2nc(NC3CCCCCC3)nc(Oc3ccccc3F)n2)cc1Cl` [N-(3-Chloro-4-methoxy-phenyl)-N′-cycloheptyl-6-(2-fluoro-phenoxy)-[1,3,5]triazine-2,4-diamine] belongs “high activity”.
As for `COc1ccc(Nc2nc(NCCNC(=O)OC(C)(C)C)nc(NC3CCCCCC3)n2)cc1Cl` [drawing 588, {2-[4-(3-Chloro-4-methoxy-phenyl-amino)-6-cyclo-heptylamino-[1,3,5]triazin-2-yl-amino]-ethyl}-carbamic acidtert-butyl ester], the IC50 under setting [1] is under 3000 nM and the IC50 under setting [2] came out at 1250 nM.
As for `COc1ccc(Nc2nc(NNC(=O)CCCCC3SCC4NC(=O)NC43)nc(NC3CCCCCC3)n2)cc1Cl` (stereo not shown) [drawing 596, 5-(2-Oxo-hexahydro-thieno[3,4-d]imi-dazol-4-yl)-pentanoic acidN′-[4-(3-chloro-4-methoxy-phenyl-amino)-6-cyclo-heptylamino-[1,3,5]triazine-2-yl]-hy-drazide], the IC50 is, setting by setting: (read-out: Activity (note 1)) 3000 to 7000 nM; (read-out: Avg IC-50) 5000 nM.
Regarding `Cc1ccc(Nc2nc(NC3CCCCCC3)nc(N(C)C3CCN(C)CC3)n2)cc1F` [drawing 592, N-Cycloheptyl-N′-(3-fluoro-4-meth-yl-phenyl)-N″-methyl-N″-(1-meth-yl-piperidin-4-yl)-[1,3,5]tri-azine-2,4,6-triamine], the IC50 is under 3000 nM under setting [1] and 2250 nM under setting [2].
Turning to `CCN1CCCC1CNc1nc(Nc2ccc(OC)c(F)c2)nc(N2CCN(CC(=O)N3CCCC3)CC2)n1` (stereo not shown) [2-{4-[4-[(1-Ethyl-pyrrolidin-2-ylmethyl)-amino]-6-(3-fluoro-4-methoxy-phenylamino)-[1,3,5]triazin-2-yl]-piperazin-1-yl}-1-pyrrolidin-1-yl-ethanone], the “activity in anti-proliferation assay” value is given as “high activity”.
Regarding `COc1ccc(Nc2nc(NCCNC(=O)CCCCC3SCC4NC(=O)NC43)nc(NC3CCCCCC3)n2)cc1Cl` (stereo not shown), the “activity in anti-proliferation assay” value is on record as “high activity”.
The same measure, in the same setting: the same measure for `COc1ccc(Nc2nc(NC(C)C)nc(Oc3ccc(C#CC(C)(C)O)cc3)n2)cc1Cl` [4-{4-[4-(3-Chloro-4-methoxy-phenylamino)-6-isopropylamino-[1,3,5]triazin-2-yloxy]-phenyl}-2-methyl-but-3-yn-2-ol]: “high activity”; for `COc1ccc(Nc2nc(NC3CCCCCC3)nc(Oc3ccc(C(C)=O)cc3Cl)n2)cc1Cl` [1-{3-Chloro-4-[4-(3-chloro-4-methoxy-phenylamino)-6-cycloheptylamino-[1,3,5]triazin-2-yloxy]-phenyl}-ethanone]: “high activity”.
Turning to `COc1ccc(Nc2nc(NC3CCCCCC3)nc(OC(C)C)n2)cc1Cl` [drawing 578, N-(3-Chloro-4-methoxy-phenyl)-N′-cyclo-heptyl-6-isopropoxy-[1,3,5]tri-azine-2,4-diamine], the IC50 is 3000 to 7000 nM under setting [1] and 6500 nM under setting [2].
The like results for `CCN1CCCC(Oc2nc(Nc3ccc(OC)c(Cl)c3)nc(NC3CCCCCC3)n2)C1` (stereo not shown) [drawing 581, N-(3-Chloro-4-methoxy-phenyl)-N′-cyclo-heptyl-6-(1-ethyl-piper-idin-3-yloxy)-[1,3,5]triazine-2,4-di-amine] were, in that order, 3000 to 7000 nM and 4200 nM.
In the case of `COc1ccc(Nc2nc(NCCCCCNC(=O)CCCCC3SCC4NC(=O)NC43)nc(NC3CCCCCC3)n2)cc1Cl` (stereo not shown) [drawing 594, 5-(2-Oxo-hexahydro-thieno[3,4-d]imi-dazol-4-yl)-pentanoic acid {5-[4-(3-chloro-4-methoxy-phenyl-amino)-6-cyclo-heptylamino-[1,3,5]triazin-2-yl-amino]-pentyl}-amide], the IC50 (read-out: Activity (note 1)) is under 3000 nM and the IC50 (read-out: Avg IC-50) came out at 2200 nM.
As to `COc1ccc(Nc2nc(NCC3CCCO3)nc(NC3CCCCCC3)n2)cc1Cl` (stereo not shown) [drawing 587, N-(3-Chloro-4-methoxy-phenyl)-N′-cyclo-heptyl-N″-(tetrahydro-furan--2-ylmethyl)-[1,3,5]triazine-2,4,6-tri-amine], the IC50 was under 3000 nM under setting [1] and 1360 nM under setting [2].
For `COc1ccc(Nc2nc(NCCN)nc(NC3CCCCCC3)n2)cc1Cl` [drawing 589, N-(2-Amino-ethyl)-N′-(3-Chloro-4-meth-oxy-phenyl)-N″-cyclo-heptyl-[1,3,5]triazine-2,4,6-triamine] the same measures were under 3000 nM and 1000 nM.
For `COc1ccc(Nc2nc(NC3CCCCCC3)nc(OC3CCCN(C(C)=O)C3)n2)cc1Cl` (stereo not shown) [drawing 577, 1-{3-[4-(3-Chloro-4-methoxy-phenyl-amino)-6-cyclo-heptylamino-[1,3,5]triazin-2-yl-oxy]-piperidin-1-yl}-ethanone] the same measures were 3000 to 7000 nM and 6500 nM.
Regarding `COc1ccc(Nc2nc(NC3CCCCCC3)nc(Oc3ccc(C=O)cc3)n2)cc1Cl` [4-[4-(3-Chloro-4-methoxy-phenylamino)-6-cycloheptylamino-[1,3,5]triazin-2-yloxy]-benzaldehyde], the “activity in anti-proliferation assay” value is recorded as “high activity”.
